Experimental findings from ChEMBL document CHEMBL5107996, “Design and evaluation of achiral, non-atropisomeric 4-(aminomethyl)phthalazin-1(2H)-one derivatives as novel PRMT5/MTA inhibitors” (Bioorg Med Chem, 2022) are described below.

In data set [1] the test system is HCT-116. In words: Antiproliferative activity against MTAP knockout human HCT-116 cells assessed as cell viability after 10 days by CellTiter-Glo assay. Conditions: HCT-116, 240 h. Format: functional, cell-based.
Data set [2] deals with T1, Protein arginine N-methyltransferase 5 (Homo sapiens, UniProt O14744). In words: Inhibition of PRMT5 methyltransferase activity in MTAP knockout human HCT-116 cells assessed as inhibition of PRMT5-mediated SDMA modification level incubated for 96 hrs by In-cell Western analysis. Format: cell-based.
Data set [3] deals with T1, Protein arginine N-methyltransferase 5. As to the kind of experiment: Inhibition of PRMT5 methyltransferase activity in human HCT-116 cells expressing wild type MTAP assessed as inhibition of PRMT5-mediated SDMA modification level incubated for 96 hrs by In-cell Western analysis. Format: cell-based.
The test system of data set [4] is HCT-116. As to the kind of experiment: Antiproliferative activity against human HCT-116 cells expressing wild type MTAP assessed as cell viability after 10 days by CellTiter-Glo assay. It counts as functional, cell-based. Conditions: HCT-116, 240 h. Background: Cellular ATP, detected with luciferase, serves as a proxy for viable cell number.
Data set [5] in a line: Ratio IC50 for antiproliferative activity against human HCT-116 cells expressing wild type MTAP to IC50 for antiproliferative activity against MTAP knockout human HCT-116 cells.
Data set [6] can be described thus: Metabolic stability in human hepatocytes assessed as intrinsic clearance. The conditions noted are these: read-out: CLH. It counts as ADME, cell-based, Hepatocyte.
Data set [7] addresses T1, Protein arginine N-methyltransferase 5. As to the kind of experiment: Inhibition of PRMT5 (unknown origin) using H2A and 3H-SAM as substrates preincubated for 20 mins followed by substrate addition incubated for 60 mins in presence of MTA by radiometric HotSpot assay.
In data set [8] the test system is HepG2. As to the kind of experiment: Antiproliferative activity against human HepG2 cells assessed as inhibition of cell viability measured after 120 hrs CellTiter-Glo assay. It counts as functional, cell-based. Conditions: HepG2, 120 h.

Some results are limits rather than exact numbers.

T1 sequence (O14744 whole entry): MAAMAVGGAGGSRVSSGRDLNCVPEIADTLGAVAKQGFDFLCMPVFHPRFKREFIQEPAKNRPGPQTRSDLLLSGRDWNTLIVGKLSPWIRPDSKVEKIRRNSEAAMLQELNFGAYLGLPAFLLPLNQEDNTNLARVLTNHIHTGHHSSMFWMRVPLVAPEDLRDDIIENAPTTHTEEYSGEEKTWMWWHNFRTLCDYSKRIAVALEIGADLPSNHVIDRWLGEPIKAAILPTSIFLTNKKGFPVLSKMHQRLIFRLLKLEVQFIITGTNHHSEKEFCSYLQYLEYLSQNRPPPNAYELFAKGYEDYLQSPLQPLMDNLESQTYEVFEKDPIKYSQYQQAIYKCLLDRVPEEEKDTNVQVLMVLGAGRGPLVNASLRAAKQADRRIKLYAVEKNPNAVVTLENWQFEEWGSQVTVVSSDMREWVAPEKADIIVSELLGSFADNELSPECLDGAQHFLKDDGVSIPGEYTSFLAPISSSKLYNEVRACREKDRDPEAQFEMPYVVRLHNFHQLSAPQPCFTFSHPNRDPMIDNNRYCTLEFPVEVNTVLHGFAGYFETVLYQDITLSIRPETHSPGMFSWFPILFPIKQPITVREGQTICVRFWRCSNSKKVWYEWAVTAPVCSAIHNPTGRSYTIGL

The term IC50 denotes the midpoint of a concentration-inhibition curve. Consider `Cn1ncc(-c2cc(C(F)F)c3c(=O)[nH]nc(CN)c3c2)c1-c1sc2ccccc2c1C#N`, for which the half-maximal inhibitory concentration (IC50) in data set [1] worked out at 37 nM; in data set [2] it was 25 nM; in data set [3], 759 nM; in data set [4] it was 2030 nM. Moreover, the “Ratio IC50” value in data set [5] was found to be 55. Besides, in data set [6], the CLint scaled came to 44 mL/min/kg.
Turning to `Cn1ncc(-c2ccc3c(=O)[nH]nc(CN)c3c2)c1-c1sc2cnccc2c1C#N`, the concentration for half-maximal inhibition (IC50) in data set [7] is 223 nM; in data set [1] it was 1470 nM.
With `Cn1ncc(-c2cc(O)c3c(=O)[nH]nc(CN)c3c2)c1-c1sc2ccccc2c1C#N`, the IC50 is 188 nM in data set [1], 262 nM in data set [2], more than 1000 nM in data set [3] and 4350 nM in data set [4]. The “Ratio IC50” value in data set [5] is reported as 23. Also, the CLint scaled in data set [6] is less than 18 mL/min/kg.
`Cn1ncc(-c2cc([C@H]3CCCO3)c3c(=O)[nH]nc(CN)c3c2)c1-c1sc2ccccc2c1C#N`: the IC50 in data set [1] was found to be 16 nM; in data set [2], 4 nM; in data set [3], 174 nM; in data set [4], 29 nM; in data set [8], 290 nM. Moreover, in data set [5], the “Ratio IC50” value is reported as 2. The CLint scaled in data set [6] was found to be 39 mL/min/kg.
As for `Cn1ncc(-c2ccc3c(=O)[nH]nc(CN)c3n2)c1-c1sc2ccccc2c1C#N`, the half-inhibitory concentration (IC50) in data set [1] was found to be 250 nM.
Consider `Cn1ncc(-c2ccc3c(=O)[nH]nc(CN)c3c2)c1-c1sc2cccnc2c1C#N`, for which the 50% inhibitory concentration (IC50) is 650 nM in data set [7] and 1540 nM in data set [1].
Regarding `COCc1cc(-c2cnn(C)c2-c2sc3ccccc3c2C#N)cc2c(CN)n[nH]c(=O)c12`, the IC50 stood at 19 nM in data set [1]; 5 nM in data set [2]; 267 nM in data set [3]; 51 nM in data set [4]; 490 nM in data set [8]. The “Ratio IC50” value in data set [5] was 3. In addition, the CLint scaled in data set [6] came out at 66 mL/min/kg.
In the case of `Cn1ncc(-c2ccc3c(=O)[nH]nc(CN)c3c2)c1-c1sc2ccccc2c1C#N`, the half-inhibitory concentration (IC50) in data set [7] is 37 nM; in data set [3], more than 1000 nM; in data set [8], 18300 nM. Further, in data set [5], the “Ratio IC50” value is listed as 100.
For the compound `Cn1ncc(-c2cc(Cl)c3c(=O)[nH]nc(CN)c3c2)c1-c1sc2ccccc2c1C#N`, the IC50 in data set [1] is 52 nM; in data set [2], 17 nM; in data set [3], more than 1000 nM; in data set [4] it was 734 nM. In data set [5], the “Ratio IC50” value is recorded as 14. Besides, in data set [6], the CLint scaled was 71 mL/min/kg.
For the compound `Cn1ncc(-c2ccc3c(=O)[nH]nc(CN)c3c2)c1-c1sc2ncccc2c1C#N`, the half-maximal inhibitory concentration (IC50) amounted to 99 nM in data set [7] and 315 nM in data set [1].
Consider `Cc1cc(-c2cnn(C)c2-c2sc3ccccc3c2C#N)cc2c(CN)n[nH]c(=O)c12`, for which the IC50 is 30 nM in data set [1], 17 nM in data set [2], more than 1000 nM in data set [3] and 1470 nM in data set [4]. The “Ratio IC50” value in data set [5] worked out at 49. Also, in data set [6], the CLint scaled was found to be 27 mL/min/kg.
For the compound `Cn1ncc(-c2cc([C@@H]3CCCO3)c3c(=O)[nH]nc(CN)c3c2)c1-c1sc2ccccc2c1C#N`, the half-inhibitory concentration (IC50) in data set [1] was 711 nM; in data set [2], 390 nM; in data set [3], more than 1000 nM; in data set [4], 2050 nM. Moreover, in data set [5], the “Ratio IC50” value worked out at 3. The CLint scaled in data set [6] is 43 mL/min/kg.
Regarding `CCOc1cc(-c2cnn(C)c2-c2sc3ccccc3c2C#N)cc2c(CN)n[nH]c(=O)c12`, the IC50 in data set [1] was 150 nM; in data set [2], 112 nM; in data set [3], 618 nM; in data set [4] it was 637 nM. Moreover, in data set [5], the “Ratio IC50” value was 4. The CLint scaled in data set [6] was less than 18 mL/min/kg.
As for `Cn1ncc(-c2ccc3c(=O)[nH]nc(CN)c3c2)c1-c1c(F)c(Cl)cc(OC2CC2)c1C#N`, in data set [6], the CLint scaled was less than 18 mL/min/kg. Further, the IC50 in data set [8] was determined as 6600 nM.
As for `Cn1ncc(-c2ccc3c(=O)[nH]nc(CN)c3c2)c1-c1sc2ccncc2c1C#N`, the IC50 was 768 nM in data set [7] and 2940 nM in data set [1].
With `Cn1ncc(-c2cnc3c(=O)[nH]nc(CN)c3c2)c1-c1sc2ccccc2c1C#N`, the IC50 was 1350 nM in data set [7] and 3510 nM in data set [1].
